Assay results from article PMC6009894, “Molecular modelling insights into a physiologically favourable approach to eicosanoid biosynthesis inhibition through novel thieno[2,3-b]pyridine derivatives” (Journal of Enzyme Inhibition and Medicinal Chemistry, 2018).
Several values for one entry are separate records, joined by “and”; a condition that tells them apart may be missing. Equal values may be shown once.

What was measured:
[1] = test system: carrageenan-induced rat paw oedema; test: carrageenan-induced rat paw oedema assay; type: in vivo, Sprague–Dawley rats; conditions: for Inhibition of acute inflammation % inh / Swel (mean difference in rat paw volume between right and left paw): dose equivalent to 70 mg kg-1 ibuprofen; for Swel (mean difference in rat paw volume between right and left paw): DMSO; for inflammation reduction % (4h): rat paw oedema, 4 h time interval, subcutaneous, equimolar to ibuprofen 70 mg kg-1
Description: According to a priori test results, experiments were conducted on young adult male Sprague–Dawley rats (5 rats per group), weighing 140–170 g. The animals were housed at cages in a temperature controlled (25 ± 1 °C) environment and were fed ad libitum with standard laboratory chow and allowed free access to water. […] The animal protocol is in accordance with the Animal Ethical Care regulations in the Faculty of Pharmacy, Helwan University.
Compounds (equimolar to the reference drug) were dissolved in DMSO and administrated subcutaneously. One hour later, paw oedema was induced by subplantar injection of 0.1 ml of 1% carrageenan (Sigma-Aldrich, St. Louis, MO) into the right hind paw. Paw volume was measured using a water plethysmometer (Basile, Comerio, Italy). The difference between the right and left paw volume was measured at 1, 2, 3, and 4 h after induction of inflammation.
The control group (five rats per group) received DMSO subcutaneously and carrageenan in the subplantar region. Results were expressed as percentage inhibition of inflammation.

COX-1 (human) = molecular target: T1, COX-1 (human) (Homo sapiens, UniProt P23219); test: COX-1 (human) Inhibitor Screening Assay Kit (Cayman); type: biochemical
T1 construct: purchased Cayman (Ann Arbor, MI) 701070
From the text: (§1) The used protocol was according to the manufacturer protocol guide and instructions using ELISA plate reader.

COX-2 (human) = molecular target: T2, COX-2 (human) (Homo sapiens, UniProt P35354); test: COX-2 (human) Inhibitor Screening Assay Kit (Cayman); type: biochemical; conditions: for selectivity index COX-2/COX-1: towards COX-2 than COX-1
T2 construct: purchased Cayman (Ann Arbor, MI) 701080
T2 sequence (P35354 18-604): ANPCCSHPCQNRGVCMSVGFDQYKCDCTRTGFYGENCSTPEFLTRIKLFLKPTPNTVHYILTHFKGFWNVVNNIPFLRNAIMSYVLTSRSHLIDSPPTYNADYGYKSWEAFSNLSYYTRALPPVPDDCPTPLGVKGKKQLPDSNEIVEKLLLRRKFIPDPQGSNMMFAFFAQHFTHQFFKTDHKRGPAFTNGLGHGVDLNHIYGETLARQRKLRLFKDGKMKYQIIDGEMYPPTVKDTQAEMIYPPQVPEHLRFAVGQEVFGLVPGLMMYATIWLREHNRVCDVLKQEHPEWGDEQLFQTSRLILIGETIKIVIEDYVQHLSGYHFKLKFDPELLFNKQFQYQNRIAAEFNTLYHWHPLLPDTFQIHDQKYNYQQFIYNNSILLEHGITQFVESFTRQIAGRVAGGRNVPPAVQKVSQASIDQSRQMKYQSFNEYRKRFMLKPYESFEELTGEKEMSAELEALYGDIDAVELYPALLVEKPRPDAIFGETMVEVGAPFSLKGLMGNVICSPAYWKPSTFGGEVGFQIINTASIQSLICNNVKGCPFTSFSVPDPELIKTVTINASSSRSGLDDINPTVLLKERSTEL
From the text: as §1

5-LOX = molecular target: T3, 5-LOX (Homo sapiens, UniProt P09917); test: 5-LOX Inhibitor Screening Assay Kit (Cayman); type: biochemical; conditions: for 5-LOX IC50 level: in words
T3 sequence (P09917 1-674): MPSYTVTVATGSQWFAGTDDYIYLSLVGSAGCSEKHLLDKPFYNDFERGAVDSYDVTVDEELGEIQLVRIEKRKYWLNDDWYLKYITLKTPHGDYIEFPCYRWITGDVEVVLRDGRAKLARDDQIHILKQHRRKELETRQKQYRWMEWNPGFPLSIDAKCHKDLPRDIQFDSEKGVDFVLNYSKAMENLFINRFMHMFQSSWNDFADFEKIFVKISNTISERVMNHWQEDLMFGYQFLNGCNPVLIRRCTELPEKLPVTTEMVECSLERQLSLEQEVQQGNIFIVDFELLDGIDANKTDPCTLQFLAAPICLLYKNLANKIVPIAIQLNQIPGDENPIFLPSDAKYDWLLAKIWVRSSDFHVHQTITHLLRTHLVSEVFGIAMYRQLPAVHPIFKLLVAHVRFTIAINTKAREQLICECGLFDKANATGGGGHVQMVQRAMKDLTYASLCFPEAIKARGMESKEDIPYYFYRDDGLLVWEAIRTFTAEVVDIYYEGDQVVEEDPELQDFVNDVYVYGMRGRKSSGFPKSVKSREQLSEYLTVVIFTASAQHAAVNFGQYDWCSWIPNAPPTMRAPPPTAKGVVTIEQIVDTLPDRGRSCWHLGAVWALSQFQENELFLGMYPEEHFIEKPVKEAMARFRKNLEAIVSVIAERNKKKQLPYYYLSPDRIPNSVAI
From the text: as §1

T1 sequence (P23219 24-599): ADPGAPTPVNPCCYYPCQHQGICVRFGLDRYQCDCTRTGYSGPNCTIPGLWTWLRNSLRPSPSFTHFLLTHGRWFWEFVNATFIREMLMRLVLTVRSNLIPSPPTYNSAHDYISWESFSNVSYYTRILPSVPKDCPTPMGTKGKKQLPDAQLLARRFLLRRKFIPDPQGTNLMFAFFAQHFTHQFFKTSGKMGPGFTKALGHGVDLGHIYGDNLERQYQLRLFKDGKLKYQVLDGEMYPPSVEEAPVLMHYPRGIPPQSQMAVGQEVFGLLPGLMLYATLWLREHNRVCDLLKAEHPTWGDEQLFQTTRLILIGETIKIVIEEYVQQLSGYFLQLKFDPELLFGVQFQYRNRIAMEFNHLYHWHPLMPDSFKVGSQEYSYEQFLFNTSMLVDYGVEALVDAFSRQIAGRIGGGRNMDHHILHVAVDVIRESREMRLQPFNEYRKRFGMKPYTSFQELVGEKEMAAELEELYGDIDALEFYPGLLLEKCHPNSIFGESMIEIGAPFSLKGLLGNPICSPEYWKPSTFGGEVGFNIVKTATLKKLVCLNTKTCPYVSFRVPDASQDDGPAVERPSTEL

## Cc1cc(C)c2c(N)c(C(=O)NN=Cc3ccccc3)sc2n1 [Compound 7a, 3-Amino-4,6-dimethyl-thieno [2,3-b] pyridine-2-carboxylic acid benzylidene-hyrazide]
[1]; 1 h
  Inhibition of acute inflammation % inh: 37.68%
[1]; 1 h after carrageenan
  Swel (mean difference in rat paw volume between right and left paw): 0.143
[1]; 2 h
  Inhibition of acute inflammation % inh: 42.3%
[1]; 2 h after carrageenan
  Swel (mean difference in rat paw volume between right and left paw): 0.15
[1]; 3 h
  Inhibition of acute inflammation % inh: 71.2%
[1]; 3 h after carrageenan
  Swel (mean difference in rat paw volume between right and left paw): 0.156
[1]; 4 h
  Inhibition of acute inflammation % inh: 73.54%
[1]; 4 h after carrageenan
  Swel (mean difference in rat paw volume between right and left paw): 0.16
[1]
  inflammation reduction % (4h): 73.5% and 73.54%
COX-1 (human)
  IC50: 45.9 µM
COX-2 (human)
  IC50: 9.99 µM
  selectivity index COX-2/COX-1: 4.6
COX-2 (human); compared with 8a
  COX-2 inhibition, times higher than 8a: 3.6 times
COX-2 (human); compared with 8c
  COX-2 inhibition, times higher than 8c: 1.8 times
5-LOX; compared with 8a
  5-LOX inhibition, times higher than 8a: 35 times
5-LOX; compared with 8c
  5-LOX inhibition, times higher than 8c: 87 times
5-LOX
  5-LOX IC50 level: nanomolar level

## Cc1cc(C)c2c(N)c(C(=O)N/N=C/c3ccc(Cl)cc3)sc2n1 [Compound 7b, 3-Amino-4,6-dimethyl-thieno [2,3-b] pyridine-2-carboxylic acid (4-chloro-benzylidene)-hyrazide]
[1]; 1 h
  Inhibition of acute inflammation % inh: 22.1%
[1]; 1 h after carrageenan
  Swel (mean difference in rat paw volume between right and left paw): 0.17
[1]; 2 h
  Inhibition of acute inflammation % inh: 35.62%
[1]; 2 h after carrageenan
  Swel (mean difference in rat paw volume between right and left paw): 0.16
[1]; 3 h
  Inhibition of acute inflammation % inh: 54.75%
[1]; 3 h after carrageenan
  Swel (mean difference in rat paw volume between right and left paw): 0.25
[1]; 4 h
  Inhibition of acute inflammation % inh: 73.02%
[1]; 4 h after carrageenan
  Swel (mean difference in rat paw volume between right and left paw): 0.17
[1]
  inflammation reduction % (4h): 73.02%
COX-1 (human)
  IC50: 31.8 µM
COX-2 (human)
  IC50: 7.5 µM and 7.52 µM
  selectivity index COX-2/COX-1: 4.2
other
  melting point: 280 to 282 °C
5-LOX
  5-LOX IC50 level: nanomolar level

## Cc1cc(C)c2c(n1)sc1c(=O)n(/N=C/c3ccc(Cl)cc3)nnc12 [Compound 8b, 7,9-Dimethyl-3-[(4-chloro-phenyl-methylene)amino]pyrido[3ˈ,2ˈ:4,5] thieno [3,2-d][1,2,3]triazin-4(3H)-one]
[1]; 1 h
  Inhibition of acute inflammation % inh: 0%
[1]; 1 h after carrageenan
  Swel (mean difference in rat paw volume between right and left paw): 0.23
[1]; 2 h
  Inhibition of acute inflammation % inh: 0%
[1]; 2 h after carrageenan
  Swel (mean difference in rat paw volume between right and left paw): 0.27
[1]; 3 h
  Inhibition of acute inflammation % inh: 56.54%
[1]; 3 h after carrageenan
  Swel (mean difference in rat paw volume between right and left paw): 0.24
[1]; 4 h
  Inhibition of acute inflammation % inh: 78.23%
[1]; 4 h after carrageenan
  Swel (mean difference in rat paw volume between right and left paw): 0.14
[1]
  inflammation reduction % (4h): 78.2% and 78.23%
COX-1 (human)
  IC50: 19.9 µM
  affinity towards COX-1 over COX-2: approximately 2 fold
COX-2 (human)
  IC50: 36 µM
other
  melting point: 255 to 257 °C
5-LOX; compared with 7a
  5-LOX inhibition, times less potent than 7a: approximately 90 times
5-LOX
  5-LOX IC50 level: micromolar level

## COc1ccc(/C=N/n2nnc3c(sc4nc(C)cc(C)c43)c2=O)cc1 [Compound 8c, 7,9-Dimethyl-3-[(4-methoxy-phenyl-methylene)amino]pyrido[3ˈ,2ˈ:4,5]thieno [3,2-d][1,2,3]triazin-4(3H)-one]
[1]; 1 h
  Inhibition of acute inflammation % inh: 0%
[1]; 1 h after carrageenan
  Swel (mean difference in rat paw volume between right and left paw): 0.246
[1]; 2 h
  Inhibition of acute inflammation % inh: 34.61%
[1]; 2 h after carrageenan
  Swel (mean difference in rat paw volume between right and left paw): 0.17
[1]; 3 h
  Inhibition of acute inflammation % inh: 41.78%
[1]; 3 h after carrageenan
  Swel (mean difference in rat paw volume between right and left paw): 0.316
[1]; 4 h
  Inhibition of acute inflammation % inh: 79.36%
[1]; 4 h after carrageenan
  Swel (mean difference in rat paw volume between right and left paw): 0.13
[1]
  inflammation reduction % (4h): 79.4% and 79.36%
COX-1 (human)
  IC50: 7.7 µM and 7.66 µM
  affinity towards COX-1 over COX-2: approximately 2 fold
COX-2 (human)
  IC50: 19 µM
other
  melting point: 240 to 242 °C
5-LOX
  5-LOX IC50 level: micromolar level
